Earlier results on 1 molecule are cited in patent publication US6504031B1, “Naphthamidine urokinase inhibitors” (priority 1998, dated 2003).

One series has as its system angiogenesis. As to conditions: J. Cell Biol. 1991, 115[3 Pt 2], 402a.
A further series concerns tumor metastasis. The settings on record: Anticancer Res. 1988, 8, 1373-1376.

For the molecule `N=C(N)NC(=O)c1nc(Cl)c(N)nc1N` [Amiloride], in the series on angiogenesis, the “inhibition of angiogenesis in vitro” value was “inhibit”. Besides, the “inhibition of tumor metastasis in vivo” value with tumor metastasis is “inhibit tumor metastasis”.
